Measured values from ChEMBL document CHEMBL1201862, “PubChem BioAssay data set” (2004).
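48-hour exposure; five concentrations; linearly interpolated endpoints. Here, GI50 denotes the concentration required for 50% inhibition of growth.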 The source made the active and inactive calls. Cut-off read from the data, not from the text of the source: active = GI50 up to about 1.1 µM and inactive = higher.

Legend:
Experiment in all cases: NCI anticancer screen, dose series, 48 h
CCRF-CEM = test system: CCRF-CEM
HOP-62 = test system: HOP-62
SF-295 = test system: SF-295
UACC-257 = test system: UACC-257
HCC 2998 = test system: HCC 2998
EKVX = test system: EKVX
M19-MEL = test system: M19-MEL
OVCAR-5 = test system: OVCAR-5
SF-539 = test system: SF-539
DU-145 = test system: DU-145
SK-OV-3 = test system: SK-OV-3
MDA-MB-435 = test system: MDA-MB-435
786-0 = test system: 786-0
MCF7 = test system: MCF7
ACHN = test system: ACHN
HOP-92 = test system: HOP-92
HT-29 = test system: HT-29
SR = test system: SR
KM12 = test system: KM12
HCT-15 = test system: HCT-15
KM-20L2 = test system: KM-20L2
M14 = test system: M14
OVCAR-8 = test system: OVCAR-8
LXFL 529 = test system: LXFL 529
NCI-H460 = test system: NCI-H460
NCI-H522 = test system: NCI-H522
TK-10 = test system: TK-10
U-251 = test system: U-251
PC-3 = test system: PC-3
Hs-578T = test system: Hs-578T
UO-31 = test system: UO-31
MOLT-4 = test system: MOLT-4
A498 = test system: A498
RXF 393 = test system: RXF 393
SNB-78 = test system: SNB-78
IGROV-1 = test system: IGROV-1
XF498 = test system: XF498
SW-620 = test system: SW-620
SF-268 = test system: SF-268
DMS-114 = test system: DMS-114
DMS-273 = test system: DMS-273
COLO 205 = test system: COLO 205
BT-549 = test system: BT-549
MDA-MB-231 = test system: MDA-MB-231
SK-MEL-28 = test system: SK-MEL-28
MDA-N = test system: MDA-N
SNB-19 = test system: SNB-19
A549 = test system: A549
SK-MEL-2 = test system: SK-MEL-2
SNB-75 = test system: SNB-75
NCI-H226 = test system: NCI-H226
HOP-18 = test system: HOP-18
Malme-3M = test system: Malme-3M
NCI/ADR-RES = test system: NCI/ADR-RES
T47D = test system: T47D
SK-MEL-5 = test system: SK-MEL-5
UACC-62 = test system: UACC-62
OVCAR-4 = test system: OVCAR-4
HL-60 = test system: HL-60
SN12C = test system: SN12C
OVCAR-3 = test system: OVCAR-3
DLD-1 = test system: DLD-1
K562 = test system: K562
CAKI-1 = test system: CAKI-1
HCT-116 = test system: HCT-116
LOX IMVI = test system: LOX IMVI
RPMI-8226 = test system: RPMI-8226
NCI-H23 = test system: NCI-H23

## CN(C)c1nc(N(C)C)nc(N(C)C)n1 [ALTRETAMINE]
CCRF-CEM
  GI50: > 147 µM (inactive)
HOP-62
  GI50: 139 µM (inactive)
SF-295
  GI50: > 150 µM (inactive)
UACC-257
  GI50: > 150 µM (inactive)
HCC 2998
  GI50: > 123 µM (inactive)
EKVX
  GI50: > 150 µM (inactive)
M19-MEL
  GI50: > 144 µM (inactive)
OVCAR-5
  GI50: > 147 µM (inactive)
SF-539
  GI50: > 143 µM (inactive)
DU-145
  GI50: > 150 µM (inactive)
SK-OV-3
  GI50: > 150 µM (inactive)
MDA-MB-435
  GI50: > 150 µM (inactive)
786-0
  GI50: > 150 µM (inactive)
MCF7
  GI50: > 150 µM (inactive)
ACHN
  GI50: > 150 µM (inactive)
HOP-92
  GI50: 147 µM (inactive)
HT-29
  GI50: > 150 µM (inactive)
SR
  GI50: > 150 µM (inactive)
KM12
  GI50: > 150 µM (inactive)
HCT-15
  GI50: > 122 µM
KM-20L2
  GI50: > 150 µM (inactive)
M14
  GI50: > 150 µM (inactive)
OVCAR-8
  GI50: > 150 µM (inactive)
LXFL 529
  GI50: > 150 µM (inactive)
NCI-H460
  GI50: > 124 µM (inactive)
NCI-H522
  GI50: 141 µM (inactive)
TK-10
  GI50: > 150 µM (inactive)
U-251
  GI50: > 150 µM (inactive)
PC-3
  GI50: > 150 µM (inactive)
Hs-578T
  GI50: > 150 µM (inactive)
UO-31
  GI50: > 147 µM (inactive)
MOLT-4
  GI50: 133 µM (inactive)
A498
  GI50: > 148 µM (inactive)
RXF 393
  GI50: > 150 µM (inactive)
SNB-78
  GI50: > 150 µM (inactive)
IGROV-1
  GI50: > 123 µM (inactive)
XF498
  GI50: 109 µM (inactive)
SW-620
  GI50: > 150 µM (inactive)
SF-268
  GI50: > 150 µM (inactive)
DMS-114
  GI50: > 148 µM (inactive)
DMS-273
  GI50: > 140 µM (inactive)
COLO 205
  GI50: > 148 µM (inactive)
BT-549
  GI50: > 150 µM (inactive)
MDA-MB-231
  GI50: > 150 µM (inactive)
SK-MEL-28
  GI50: > 150 µM (inactive)
MDA-N
  GI50: > 150 µM (inactive)
SNB-19
  GI50: > 144 µM (inactive)
A549
  GI50: > 147 µM (inactive)
SK-MEL-2
  GI50: > 150 µM (inactive)
SNB-75
  GI50: 130 µM (inactive)
NCI-H226
  GI50: > 150 µM (inactive)
HOP-18
  GI50: 53.3 µM (inactive)
Malme-3M
  GI50: > 147 µM (inactive)
NCI/ADR-RES
  GI50: > 114 µM (inactive)
T47D
  GI50: > 150 µM (inactive)
SK-MEL-5
  GI50: 136 µM (inactive)
UACC-62
  GI50: > 150 µM (inactive)
OVCAR-4
  GI50: > 143 µM (inactive)
HL-60
  GI50: > 142 µM (inactive)
SN12C
  GI50: > 150 µM (inactive)
OVCAR-3
  GI50: 142 µM (inactive)
DLD-1
  GI50: > 132 µM (inactive)
K562
  GI50: > 148 µM (inactive)
CAKI-1
  GI50: 130 µM (inactive)
HCT-116
  GI50: > 150 µM (inactive)
LOX IMVI
  GI50: > 145 µM (inactive)
RPMI-8226
  GI50: > 143 µM (inactive)
NCI-H23
  GI50: > 143 µM (inactive)

## CCc1ccc(NC(=O)NC(=O)c2ccccc2[N+](=O)[O-])cc1Oc1ncc(Cl)cn1
CCRF-CEM
  GI50: 0.0213 µM (active)
HOP-62
  GI50: < 0.0154 µM (active)
SF-295
  GI50: < 0.0222 µM (active)
UACC-257
  GI50: < 0.01 µM (active)
HCC 2998
  GI50: 0.027 µM (active)
EKVX
  GI50: 7.06 µM (inactive)
M19-MEL
  GI50: < 0.0275 µM (active)
OVCAR-5
  GI50: < 0.0301 µM (active)
SF-539
  GI50: 0.0137 µM (active)
DU-145
  GI50: 0.0578 µM (active)
SK-OV-3
  GI50: < 0.0164 µM (active)
MDA-MB-435
  GI50: < 0.01 µM (active)
786-0
  GI50: 0.0158 µM (active)
MCF7
  GI50: < 0.01 µM (active)
ACHN
  GI50: 0.0386 µM (active)
HOP-92
  GI50: < 0.01 µM (active)
HT-29
  GI50: 0.0179 µM (active)
SR
  GI50: 0.0247 µM (active)
KM12
  GI50: < 0.0161 µM (active)
HCT-15
  GI50: 0.0141 µM
KM-20L2
  GI50: 0.0148 µM (active)
M14
  GI50: 0.0231 µM (active)
OVCAR-8
  GI50: 0.0264 µM (active)
LXFL 529
  GI50: < 0.0185 µM (active)
NCI-H460
  GI50: 0.0158 µM (active)
NCI-H522
  GI50: 0.0135 µM (active)
TK-10
  GI50: 1.96 µM (inactive)
U-251
  GI50: 0.0181 µM (active)
PC-3
  GI50: < 0.01 µM (active)
Hs-578T
  GI50: < 0.01 µM (active)
UO-31
  GI50: < 0.01 µM (active)
MOLT-4
  GI50: 0.0247 µM (active)
A498
  GI50: < 0.01 µM (active)
RXF 393
  GI50: < 0.01 µM (active)
SNB-78
  GI50: 0.0279 µM (active)
IGROV-1
  GI50: < 0.0165 µM (active)
XF498
  GI50: < 0.01 µM (active)
SW-620
  GI50: 0.0168 µM (active)
SF-268
  GI50: 0.0287 µM (active)
DMS-114
  GI50: 0.0174 µM (active)
DMS-273
  GI50: < 0.0149 µM (active)
COLO 205
  GI50: 0.0304 µM (active)
BT-549
  GI50: 0.0815 µM (active)
MDA-MB-231
  GI50: 0.0376 µM (active)
SK-MEL-28
  GI50: 0.37 µM (active)
MDA-N
  GI50: < 0.01 µM (active)
SNB-19
  GI50: 0.0495 µM (active)
A549
  GI50: 0.0213 µM (active)
SK-MEL-2
  GI50: < 0.01 µM (active)
SNB-75
  GI50: < 0.01 µM (active)
NCI-H226
  GI50: 0.0151 µM (active)
HOP-18
  GI50: > 100 µM (inactive)
Malme-3M
  GI50: < 0.01 µM (active)
SK-MEL-5
  GI50: < 0.0139 µM (active)
UACC-62
  GI50: < 0.0177 µM (active)
OVCAR-4
  GI50: 2.61 µM (inactive)
HL-60
  GI50: < 0.013 µM (active)
SN12C
  GI50: 0.0308 µM (active)
OVCAR-3
  GI50: 0.0147 µM (active)
DLD-1
  GI50: < 0.0192 µM (active)
K562
  GI50: < 0.0145 µM (active)
CAKI-1
  GI50: < 0.01 µM (active)
HCT-116
  GI50: 0.0331 µM (active)
LOX IMVI
  GI50: 0.0189 µM (active)
RPMI-8226
  GI50: < 0.0159 µM (active)
NCI-H23
  GI50: < 0.0174 µM (active)
